According to patent US20250163119A1, “COMPOUNDS FOR THE TREATMENT OF DIABETES OR OBESITY” (Eli Lilly and Company, priority 2023, published 2025):
*1 amine or outer side, *2 acyl side, *3 side chain or, on linkers, in order; H or OH if unused. Where a SMILES comes first, the peptide text is derived from it. Side-chain parts run from the residue outwards. [ ]: non-standard residue; d: D form. The star is where a group is joined. C20 diacid = O=C(O)CCCCCCCCCCCCCCCCCCC(=O)*; γGlu = O=C(O)[C@H](CCC(=O)[*:2])N[*:1]; εLys = N[C@@H](CCCCN[*:1])C(=O)[*:2]; NMeI = CC[C@H](C)[C@H](NC)C(=O)O; pGlu = O=C1CC[C@@H](C(=O)O)N1; αMeL = CC(C)C[C@](C)(N)C(=O)O; AEEA = NCCOCCOCC(=O)O; Aib = CC(C)(N)C(=O)O

How the values were obtained:
[1] = tested on: MHC-II presented peptides on human dendritic cells; test: MAPPS assay (MHC-Associated Peptide Proteomics); assay type: cell-based; settings: for peptides displayed on MHC-II complexes: human dendritic cells from normal donors; for immunogenicity compared with SEQ ID NO:54: in the MAPPs assay and/or the T cell proliferation assay
Method: MAPPS profiles the MHC-II presented peptides on human dendritic cells treated with tested molecules. CD14+ cells, isolated from the PBMCs of normal human donors, were cultured and differentiated into immature DCs by incubation with IL-4 and GM-CSF. On day 4, culture media was replaced with fresh media containing tested molecules. On day 5, LPS was added to transform the cells into mature DCs. On day 6, cells were lysed in RIPA buffer with protease inhibitors. Immunoprecipitation of MHC-II complexes were performed using biotinylated anti-MHC-II antibody coupled to streptavidin beads. The bound complex was eluted and filtered. The isolated MHC-II peptides were analyzed by a mass spectrometer. Peptide identifications were generated by an internal proteomics pipeline using search algorithms with no enzyme and a bovine/human database with test sequences appended to the database. A KNIME workflow was used to process the identification files from the samples. Peptides identified from the test articles were aligned against the parent sequence of the test molecule. The output was used to determine the percentage of donors displaying MHC-II peptides from regions of the test molecule. Polypeptides comprising SEQ ID NOs:54, 49, 50, 29, 41, 45, 1, 22, 25 were tested in the MAPPs assay. […] Depending on the donors, up to three major clusters were observed, each slightly shifted from the others, altogether spanning residues 1-33.

human CRHR1 = target: T1, human CRHR1 (Homo sapiens, UniProt P34998); test: Human CRHR1 cAMP assay (HTRF) in HEK293 cells stably expressing human CRHR1; assay type: cell-based; settings: HEK293 cells overexpressing human CRHR1; relative EC50, maximum 66 nM human UCN1; mean ± SE; read-out: hCRHR1 cAMP EC50 (pM, ± SE)
T1 construct: expressed in transfected cells
T1 sequence (P34998 24-415): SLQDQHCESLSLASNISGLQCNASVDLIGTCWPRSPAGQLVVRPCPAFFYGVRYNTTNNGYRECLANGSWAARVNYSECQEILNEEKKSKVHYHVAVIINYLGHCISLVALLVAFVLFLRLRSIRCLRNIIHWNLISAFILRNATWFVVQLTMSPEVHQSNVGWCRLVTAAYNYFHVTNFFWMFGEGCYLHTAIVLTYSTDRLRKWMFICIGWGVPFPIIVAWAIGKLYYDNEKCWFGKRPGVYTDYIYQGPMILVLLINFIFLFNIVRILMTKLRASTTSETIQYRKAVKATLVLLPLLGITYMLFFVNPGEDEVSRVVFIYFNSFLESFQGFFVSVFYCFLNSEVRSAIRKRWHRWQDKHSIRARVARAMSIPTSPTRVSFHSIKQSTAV
Method in brief: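 Peptides were tested as 1:3 dilution series on thawed HEK293 cells stably expressing the receptor, in MEM with 0.1% casein, 5 mM HEPES pH 7.4 and 0.25 mM IBMX. CRHR1 cells (25,000/well) were incubated 1 h at 37° C; CRHR2 cells (5,000/well) 30 min at room temperature. cAMP was read by HTRF (665/620 nm) against a cAMP standard curve.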

[2] = donors displaying MHC-II peptides / donors tested
[3] = percentage of donors displaying MHC-II peptides

Compound | MAPPS Assay >10 donors with diverse MHC [1, 2] | peptides displayed on MHC-II complexes [1] | immunogenicity compared with SEQ ID NO:54 [1] | MAPPS Assay >10 donors with diverse MHC [1, 3] | EC50 (human CRHR1)
CC[C@H](C)[C@H](NC)C(=O)N[C@H](C(=O)N[C@H](C(=O)N[C@@H](CO)C(=O)N[C@@H](CC(C)C)C(=O)N[C@@H](CC(=O)O)C(=O)N[C@H](C(=O)N1CCC[C@H]1C(=O)N[C@H](C(=O)NCC(=O)N[C@@](C)(CC(C)C)C(=O)N[C@@H](CC(C)C)C(=O)N[C@@H](CCC(N)=O)C(=O)N[C@@H](CCCCN)C(=O)N[C@@H](CC(C)C)C(=O)N[C@@H](CC(C)C)C(=O)N[C@@H](CCC(=O)O)C(=O)N[C@@H](CCC(N)=O)C(=O)N[C@@H](CCC(=O)O)C(=O)N[C@@H](CCCNC(=N)N)C(=O)N[C@@H](C)C(=O)N[C@@H](CCC(=O)O)C(=O)N[C@@H](CCCCN)C(=O)N[C@@H](C)C(=O)N[C@@H](CCCNC(=N)N)C(=O)N[C@@H](CCC(N)=O)C(=O)N[C@@H](CCC(N)=O)C(=O)N[C@@H](C)C(=O)N[C@@H](CCCCNC(=O)COCCOCCNC(=O)COCCOCCNC(=O)CC[C@H](NC(=O)CCCCCCCCCCCCCCCCCCC(=O)O)C(=O)O)C(=O)N[C@@H](CCC(=O)O)C(=O)N[C@@H](C)C(=O)N[C@@H](C)C(=O)N[C@@H](CCC(=O)O)C(=O)N[C@H](C(=O)N[C@@H](CC(C)C)C(=O)N[C@@H](C)C(=O)N[C@@H](CCC(N)=O)C(=O)N[C@H](C(N)=O)C(C)C)[C@@H](C)CC)[C@@H](C)CC)C(C)C)[C@@H](C)O)C(C)C [SEQ ID NO: 50, (NMeI) VTSLDVPIG αMeL LQKLLEQERAEKARQQAK((2-[2-(2-Amino-ethoxy)-ethoxy]-acetyl)2-γE-CO-(CH2)18-CO2H)EAAEILAQV-NH2] (H-[NMeI]VTSLDVPIG[αMeL]LQKLLEQERAEKARQQAK([AEEA-AEEA-γGlu-C20 diacid])EAAEILAQV-NH2) | 3/10 | at least one peptide cluster on MHC-II complexes in a subset of donors | substantial improvements in immunogenicity over a compound comprising SEQ ID NO:54 | 30% | > 1e+07 pM
CC[C@H](C)[C@H](NC)C(=O)N[C@H](C(=O)N[C@@H](CC(C)C)C(=O)N[C@@H](CO)C(=O)N[C@@H](CC(C)C)C(=O)N[C@@H](CC(=O)O)C(=O)N[C@H](C(=O)N1CCC[C@H]1C(=O)N[C@H](C(=O)NCC(=O)N[C@@H](CC(C)C)C(=O)N[C@@H](CC(C)C)C(=O)N[C@@H](CCC(N)=O)C(=O)N[C@H](C(=O)N[C@@H](CC(C)C)C(=O)N[C@@H](CC(C)C)C(=O)N[C@@H](CCC(=O)O)C(=O)N[C@@H](CCC(N)=O)C(=O)N[C@@H](CCC(=O)O)C(=O)N[C@@H](CCCCN)C(=O)N[C@@H](CCC(N)=O)C(=O)N[C@@H](CCC(=O)O)C(=O)N[C@@H](CCCCN)C(=O)N[C@@H](CCC(=O)O)C(=O)N[C@@H](CCCCN)C(=O)N[C@@H](CCC(N)=O)C(=O)N[C@@H](CCC(N)=O)C(=O)N[C@@H](C)C(=O)N[C@@H](CCCCNC(=O)COCCOCCNC(=O)COCCOCCNC(=O)CC[C@H](NC(=O)CC[C@H](NC(=O)CCCCCCCCCCCCCCCCCCC(=O)O)C(=O)O)C(=O)O)C(=O)N[C@H](C(=O)N[C@@H](CC(N)=O)C(=O)N[C@@H](C)C(=O)N[C@@H](CCC(N)=O)C(=O)N[C@H](C(=O)N[C@@H](CC(C)C)C(=O)N[C@@H](C)C(=O)N[C@@H](CCC(N)=O)C(=O)N[C@H](C(N)=O)C(C)C)[C@@H](C)CC)[C@@H](C)O)[C@@H](C)CC)[C@@H](C)CC)C(C)C)C(C)C [SEQ ID NO: 54] (H-[NMeI]VLSLDVPIGLLQILLEQEKQEKEKQQAK([AEEA-AEEA-γGlu-γGlu-C20 diacid])TNAQILAQV-NH2) | 7/10 | at least one peptide cluster on MHC-II complexes in a subset of donors |  | 70% | > 1e+07 pM
Ac-GSPSIVTS[αMeL]DVPT[Aib][αMeL]LQKILEQERAEKARQQAK([γGlu-AEEA-εLys-C20 diacid])EAAEILAQV-NH2 [SEQ ID NO: 1, Ac-GSPSIVTS αMeL DVPT Aib αMeL LQKILEQERAEKARQQAK(γE-(2-[2-(2-Amino-ethoxy)-ethoxy]-acetyl)-ϵK-CO-(CH2)18-CO2H)EAAEILAQV-NH2] | 3/20 | at least one peptide cluster on MHC-II complexes in a subset of donors | substantial improvements in immunogenicity over a compound comprising SEQ ID NO:54 | 15% | > 1e+07 pM
[pGlu]GSPSGIVTS[αMeL]DVPT[Aib][αMeL]LQKILEQERAEKARQQAK([γGlu-AEEA-εLys-C20 diacid])EAAEILAQV-NH2 [SEQ ID NO: 22, Pyr-GSPSGIVTS αMeL DVPT Aib αMeL LQKILEQERAEKARQQAK(γE-(2-[2-(2-Amino-ethoxy)-ethoxy]-acetyl)-ϵK-CO-(CH2)18-CO2H)EAAEILAQV-NH2] | 1/10 | at least one peptide cluster on MHC-II complexes in a subset of donors | substantial improvements in immunogenicity over a compound comprising SEQ ID NO:54 | 10% | > 1e+07 pM
{C20 diacid-εLys-AEEA-γGlu}-GSPSIVTS[αMeL]DVPT[Aib][αMeL]LQKILEQERAEKARQQATEAAEILAQV-NH2 [SEQ ID NO: 25] | 0/10 | no peptides displayed on MHC-II complexes | substantial improvements in immunogenicity over a compound comprising SEQ ID NO:54 | 0% | > 1e+07 pM
